Experiments:
[1] = Test of anti-inflammatory activity: carragheenin-induced podal edema in rats; type: in vivo, rat (Ico male and female, Sprague Dawley)
Description: 1. Test of Anti-inflammatory Activity
Podal edema induced by carragheenin is used to evaulate the anti-inflammatory activity of the products tested.
The products were tested on Ico male rats and female rats (Sprague Dawley) of approximately 250 g provided by the company IFFA-CREDO.
The products tested were suspended in the hydroxypropyl methyl cellulose (HPMC).
A volume of 5 ml per kg of body weight was administered to the animals by oral route according to the protocol detained in the table below.
Batch Salix Tanacetum Copper Quantity Volume
no. alba parthenium gluconate of excipient administered
Batch / 900 mg / 15.0 ml) 5 ml/kg
The control animals received either the placebo (T+), i.e. solely the HPMC, or indomethacin (T-) by oral route.
The treatment took place two hours before the experiment. One hour after oral administration of the product to be tested, all the animals received 0.2 ml of a 2% solution of carragheenin (Satia) in a 0.9% solution of sodium chloride at by injection in the right back paw (T0).
The podal volume of each rat was measured using a plethysmometer. The podal edema of each animal was measured at times T0, T0 +60 minutes, T0 +120 minutes, T0 +240 minutes.
The results were expressed in average percentages of inflammation relative to the control values (T^+) before the treatment and at each of the measuring times as well as in the percentage reduction of the edema compared to a control before the treatment and against each of the measuring times.

[2] = Test of analgesic activity: phenyl benzoquinone (PBQ) induced abdominal cramps in mice; type: in vivo, mice (male); details: aspirin 100 mg/kg
Description: 50 male mice of 20-24 g supplied by the company IFFA-CREDO (France) were divided into 5 batches. The products studied were administered: by oral route thirty minutes before injection of phenyl benzoquinone (PBQ): (PBQ 20 mg+alcohol 5 ml+water qsp 100 ml). by intraperitoneal route at the rate of 0.20 ml per mouse.
The products to be tested were suspended in the excipient HPMC (hydroxypropyl cellulose methyl).
The animals were treated as below: […]
4. Tanacetum parthenium 150 10 […]
Aspirin was used as the reference analgesic product.
PBQ induces abdominal cramps indicating the intensity of the pain. The number of cramps per mouse was measured 1 hr and 2 hrs after administration of the product tested (30 mn and 1 hr 30 minutes after injection of PBQ).
The results were expressed as the percentage: […]
Number of cramps of the control batch - number of cramps of
Number of cramps of the control batch

SMILES: COc1ccc2c(c1)c(CC(=O)O)c(C)n2C(=O)c1ccc(Cl)cc1 [Indomethacin]
- % change of inflammation compared with the control (T+), 1 hour ([1]; 1 hour, "-" reduction, "+" increase in inflammation): -16.74%
- % change of inflammation compared with the control (T+), 2 hours ([1]; 2 hours, "-" reduction, "+" increase in inflammation): -36.7%
- % change of inflammation compared with the control (T+), 4 hours ([1]; 4 hours, "-" reduction, "+" increase in inflammation): -50.38%
- % inflammation after 1 hour ([1]; oral, 5 ml/kg, 1 hour): 38.34%
- % inflammation after 2 hours ([1]; oral, 5 ml/kg, 2 hours): 51.85%
- % inflammation after 4 hours ([1]; oral, 5 ml/kg, 4 hours): 71.38%

SMILES: CC(=O)Oc1ccccc1C(=O)O [aspirin]
- Reduction of number of abdominal cramps, 1 hr ([2]; 60 mins after administration, Salix alba 150 mg/kg): 33%
- Reduction of number of abdominal cramps, 2 hrs ([2]; 120 mins after administration, Salix alba or Tanacetum parthenium 150 mg/kg): 55%

— patent US6254899A, “Plant extract compositions, method of preparation, and pharmaceutical compositions containing them” (Laboratoires Remilea, priority 1999, dated 2001)
